Source: patent US20240059729A1, “MULTIFUNCTIONAL CYCLIC DINUCLEOTIDE AND USE THEREOF” (TYLIGAND BIOSCIENCE (SHANGHAI) LIMITED, priority 2020, published 2024)
pEC50, pIC50: −log10 of the molar value. Where a name gives a salt, the structure may show the parent alone.

tested on: CT26 cells; assay: Inhibition of proliferation of CT26 cells (CellTiter-Glo); type: cell-based, mouse; conditions: Mus musculus, 120 hours, CellTiter-Glo
Protocol: CT26 cell is a mouse colorectal cancer cell line. This assay used the CellTiter-Glo Luminescence Cell Vitality Assay kit from Promega to evaluate the inhibitory activity of the compounds on the proliferation of CT26 cells.
In thawing the CT26 cells (ATCC #CRL-2638), a cell freezing tube was quickly shaken in a water bath at 37° C. to thaw the cells within 1 min. The thawed cell suspension was taken and evenly mixed with DMEM medium (GE, Cat #SH30243.01) containing 10% FBS (GIBCO, Cat #10099-141), centrifuged for 5 min at 1000 rpm, and the supernatant was discarded. The cell pellet was resuspended in 5 mL of the complete medium (DMEM medium containing 10% FBS), placed into a cell culture flask with a bottom area of 25 cm^2, and incubated in a cell incubator at 37° C., 5% CO2 and 95% humidity. When the cell confluence reached 70%˜80%, the cells were passaged. All the cells in the culture flask were transferred to a 15 mL centrifuge tube, centrifuged for 5 min at 1000 rpm, and the supernatant was discarded. 5 mL of fresh complete medium was added to re-suspend the cell pellet, 1 mL of which was taken to place in a cell culture flask with a bottom area of 25 cm^2, supplemented with 4 mL of fresh complete medium for further incubation. When the cell confluence reached 70%-80% again, plating was conducted following the procedure of cell passage, retaining 1/5 cell suspension for further inculation and remaining 4/5 of the cell suspension in a 15 mL centrifuge tube.
The cell suspension was centrifuged to discard the old culture medium, washed once using DMEM medium (serum-free), and centrifuged to remove the supernatant. The cells were then re-suspended in DMEM medium (serum-free). Cell viability was then detected by Trypan blue exclusion test and to be used for plating when the cell viability was confirmed to be more than 95%. A cell suspension with a density of 1.1×10^4 viable cells/mL was prepared using DMEM medium (serum-free), and 90 μL of the cell suspension was added to a 96-well 96-well transparent flat-bottomed black-walled cell culture plate (Corning, Cat #3603) so that the cell density in the plate was 1000 viable cells/well. A control group containing no cells, no compound, and complete medium only (i.e., a culture medium control), and a control group containing no compound but cells (i.e., a cell control) were set. The cell plates were placed in a cell incubator overnight.
(§1) A 10 mM stock solution of the compounds in DMSO was first serially diluted at 3.16-fold with DMSO (Sigma, Cat #D2650) to the 9th concentration, and the 10th concentration was set as DMSO control (compound-free). Then, the DMSO solutions containing different concentrations of the compounds were diluted at 10-fold with PBS (Solarbio, Cat #P1020) so that the DMSO content in each compound solution of various concentrations was 10%. Finally, 10 μL of each of such solutions was added into corresponding cell culture plate to provide an initial compound concentration of 100 μM, with the dilution fold of adjacent concentrations being 3.16 and the DMSO content in the cell culture plate being 1%. The cell plate was placed in a cell incubator for further 120 hours.
After 120 hours, the CellTiter-Glo reagent (Promega, Cat #G7572) was thawed and the plates were equilibrated at room temperature for 30 min. 100 uL of CellTiter-Glo was added to each well of the plate, and the cells were lysed thoroughly by shaking on an orbital shaker for 5 min. The plates were placed at room temperature for 20 min to stabilize the luminescence signal, and the luminescence value of each well was scanned at full wavelength with a multifunctional microplate reader (Molecular Devices, Spectramax M3). […]

Row | Compound | pIC50
1 | Nc1nc(Cl)nc2c1ncn2[C@H]1C[C@H](O)[C@@H](CO)O1 [Cladribine, cladribine, reference compound] | > 6.00
2 | Nc1nc(Cl)nc2c1ncn2[C@@H]1O[C@H](CO)[C@@H](O)[C@@H]1F [Clofarabine—, clofarabine, reference compound] | > 6.00
3 | Nc1nc(Cl)nc2c1ncn2[C@@H]1O[C@@H]2CO[P@@](=O)(S)OC3[C@@H](F)[C@H](n4cnc5c(N)nc(Cl)nc54)O[C@@H]3CO[P@@](=O)(S)O[C@@H]2C1F (stereo partly drawn) [Example 1, (3′,3′)-cyclo-(Rp,Rp)-bis-[3′-O-phosphorothioate-diester-2-chloro-2′-deoxy-2′-fluoro-beta-adenosine]1.5-ammonium-0.5-1,8-diazabicycloundec-7-ene-salt] | 5.00 to 6.00
4 | Nc1nc(Cl)nc2c1ncn2[C@H]1CC2O[P@](=O)(S)OC[C@H]3O[C@@H](n4cnc5c(N)nc(Cl)nc54)CC3O[P@](=O)(S)OC[C@H]2O1 (stereo partly shown) [Example 2, (3′,3′)-cyclo-(Rp,Rp)-bis-[3′-O-phosphorothioate-diester-2-chloro-2′-deoxyadenosine]] | 5.00 to 6.00

tested on: IFN-β secretion by THP-1 cells; assay: Activation of IFN-β secretion by THP-1 cells (Human IFN-beta ELISA); type: cell-based; conditions: Homo sapiens, THP-1, 24 h, THP-1 cells, 24 hours, IFN-β ELISA
Protocol: THP-1 cell, a human monocytic leukemia cell line, has the STING phenotype of HAQ type, i.e., R71H-G230A-R293Q. This assay used the Human IFN-beta DuoSet ELISA Kit from R & D (R & D, Cat #DY814-05) and the DuoSet ELISA Ancillary Reagent Kit 2 (R & D, Cat #DY008) to evaluate the activation of IFN-β secretion from THP-1 cells by representative compounds of the invention.
In thawing the THP-1 cells (ATCC #TIB-202), a cell freezing tube was quickly shaken in a water bath at 37° C. to thaw the cells within 1 min. The thawed cell suspension was taken and evenly mixed with an RPMI1640 medium (Hyclone, product #SH30027.01) containing 10% FBS (Life Technology, Cat #10099-141), centrifuged for 5 min at 1000 rpm, and the supernatant was discarded. The cell pellet was resuspended in 5 mL of the complete medium (RPMI 1640 medium containing 10% FBS), placed into a cell culture flask with a bottom area of 25 cm^2, and incubated in a cell incubator at 37° C., 5% CO2 and 95% humidity. When the cell confluence reached about 80%, the cells were passaged. All the cells in the culture flask were transferred to a 15 mL centrifuge tube, centrifuged for 5 min at 1000 rpm, and the supernatant was discarded. 5 mL of fresh complete medium was added to re-suspend the cell pellet, 1 mL of which was taken to place in a cell culture flask with a bottom area of 25 cm^2, supplemented with 4 mL of fresh complete medium for further incubation. When the cell confluence reached about 80% again, plating was conducted following the procedure of cell passage, retaining 1/5 cell suspension for further inculation and remaining 4/5 of the cell suspension in a 15 mL centrifuge tube. The cell suspension was centrifuged to discard the old culture medium, washed once using RPMI1640 culture medium (serum-free), and centrifuged to remove the supernatant. The cells were then re-suspended in RPMI1640 culture medium (serum-free). Cell viability was then detected by Trypan blue exclusion test and to be used for plating when the cell viability was confirmed to be more than 95%. A cell suspension with a density of 1.1×10^6 viable cells/mL was prepared using RPMI1640 culture medium (serum-free), and 180 μL of the cell suspension was added to a 96-well cell culture plate (NUNC Company, Cat #167008) so that the cell density in the plate was 2×10^5 viable cells/well.
as §1, with “the 5th” for “the 9th”, “the 6th” for “the 10th”, “PBS” for “PBS (Solarbio, Cat #P1020)”, “Finally, 20” for “Finally, 10”, “further 24” for “further 120”
ELISA detection was conducted referring to the instructions from R & D System, Cat #DY814-05.
ELISA plate coating: PBS (R & D System Cat #DY006) was used to dilute the capture antibody (mouse anti-human IFN-β capture antibody PART #844508) to provide the working concentration, and 100 μL capture antibody working solution was added to a 96-well ELISA plate which was then sealed and incubated overnight at room temperature. Upon discarding the capture antibody working solution, the cell plate was washed 3 times with a washing buffer (0.05% Tween-20 in PBS, pH 7.2-7.4, R & D System Cat #WA126) at 400 μL of the washing buffer per well, and the washing buffer was thoroughly removed after each washing, with the final washing to be completely removed of the wash buffer by inverting and claping the plate to a clean piece of paper. […]

Row | Compound | pEC50
5 | Nc1nc2c(ncn2[C@@H]2O[C@@H]3CO[P@@](=O)(S)OC4C(F)[C@H](n5cnc6c(N)nc(Cl)nc65)O[C@@H]4CO[P@](=O)(S)OC2C3O)c(=O)[nH]1 (stereo partly drawn) [Example 8, (2′,3′)-cyclo-(Sp,Rp)-[2′-O-phosphorothioate-diester-guanosine]-[3′-O-phosphorothioate-diester-2-chloro-2′-deoxy-2′-fluoro-beta-adenosine] diammonium salt] | 4.00 to 5.00
6 | Nc1nc2c(ncn2[C@@H]2O[C@@H]3CO[P@](=O)(S)OC4C(F)[C@H](n5cnc6c(N)nc(Cl)nc65)O[C@@H]4CO[P@](=O)(S)OC2C3O)c(=O)[nH]1 (stereo partly drawn) [Example 9, (2′,3′)-cyclo-(Sp,Sp)-[2′-O-phosphorothioate-diester-guanosine]-[3′-O-phosphorothioate-diester-2-chloro-2′-deoxy-2′-fluoro-beta-adenosine] diammonium salt] | 4.00 to 5.00
7 | Nc1nc2c(ncn2[C@@H]2O[C@@H]3CO[P@@](=O)(S)OC4C[C@H](n5cnc6c(N)nc(Cl)nc65)O[C@@H]4CO[P@](=O)(S)OC2C3O)c(=O)[nH]1 (stereo partly shown) [Example 11, (2′,3′)-cyclo-(Sp,Rp)-[2′-O-phosphorothioate-diester-guanosine]-[3′-O-phosphorothioate-diester-2-chloro-2′-deoxy-adenosine] diammonium salt] | 4.00 to 5.00
8 | Nc1nc(Cl)nc2c1ncn2[C@@H]1O[C@@H]2CO[P@@](=O)(S)OC3[C@@H](CO[P@@](=O)(S)O[C@@H]2C1F)O[C@@H](n1cnc2c(N)ncnc21)[C@H]3F (stereo partly drawn) [Example 18, (3′,3′)-cyclo-(Rp,Rp)-[3′-O-phosphorothioate-diester-2′-deoxy-2′-fluoroadenosine]-[3′-O-phosphorothioate-diester-2-chloro-2′-deoxy-2′-fluoro-beta-adenosine]-0.5-ammonium-1.5-1,8-diazabicycloundec-7-ene-salt] | 4.00 to 5.00
9 | Nc1ncnc2c1ncn2[C@@H]1O[C@@H]2CO[P@@](=O)(S)O[C@@H]3C[C@H](n4cnc5c(N)nc(Cl)nc54)O[C@@H]3CO[P@@](=O)(S)OC2[C@@H]1F (stereo partly shown) [Example 19, (3′,3′)-cyclo-(Rp,Rp)-[3′-O-phosphorothioate-diester-2′-deoxy-2′-fluoroadenosine]-[3′-O-phosphorothioate-diester-2-chloro-2′-deoxyadenosine] 0.5-1,8-diazabicycloundec-7-ene-salt] | 4.00 to 5.00
10 | Nc1nc2c(ncn2[C@@H]2O[C@@H]3CO[P@@](=O)(S)OC4C[C@H](n5cnc6c(N)nc(Cl)nc65)O[C@@H]4CO[P@@](=O)(S)OC3C2F)c(=O)[nH]1 (stereo partly shown) [Example 21, (3′,3′)-cyclo-(Rp,Rp)-[3′-O-phosphorothioate-diester-2′-deoxy-2′-fluoroguanosine]-[3′-O-phosphorothioate-diester-2-chloro-2′-deoxyadenosine] diammonium salt] | 4.00 to 5.00
11 | CNc1nc(N)c2ncn([C@@H]3O[C@@H]4CO[P@@](=O)(S)O[C@H]5C(O)[C@@H](CO[P@@](=O)(S)O[C@@H]4C3F)O[C@H]5n3cnc4c(=O)[nH]c(N)nc43)c2n1 (stereo partly drawn) [Example 26, (2′,3′)-cyclo-(Rp,Rp)-[2′-O-phosphorothioate-diester-guanosine]-[3′-O-phosphorothioate-diester-2-methylamino-2′-deoxy-2′-fluoro-beta-adenosine] diammonium salt] | 5.00 to 6.00

same assay, conditions: THP-1 cells, 24 hours, IFN-β ELISA

Row | Compound | pEC50
12 | Nc1nc2c(ncn2[C@@H]2O[C@@H]3COP(=O)(O)O[C@H]4[C@@H](O)[C@H](n5cnc6c(N)ncnc65)O[C@@H]4COP(=O)(O)O[C@@H]2[C@@H]3O)c(=O)[nH]1 [2′,3′-cGAMP, cGAMP, reference compound] | 4.00 to 5.00

same assay, conditions: THP-1 cells, 24 hours, IFN-β ELISA; diammonium salt

Row | Compound | pEC50
13 | Nc1nc2c(ncn2[C@@H]2O[C@@H]3CO[P@@](=O)(S)OC4C(F)[C@H](n5cnc6c(N)nc(Cl)nc65)O[C@@H]4CO[P@](=O)(S)OC3C2O)c(=O)[nH]1 (stereo partly drawn) [Example 15, (3′,3′)-cyclo-(Sp,Rp)-[3′-O-phosphorothioate-diester-guanosine]-[3′-O-phosphorothioate-diester-2-chloro-2′-deoxy-2′-fluoro-beta-adenosine] diammonium salt] | 4.00 to 5.00
